{"source": "patent US20240116856A1", "about": "(Young BioPharma, LLC, priority 2020, published 2024)", "key": {"human TRPA1": {"biological_target": "T1, human TRPA1 (Homo sapiens, UniProt O75762)", "T1 construct": "expressed in transfected cells; host or cells: overexpressing cells", "T1 sequence (O75762 whole entry)": "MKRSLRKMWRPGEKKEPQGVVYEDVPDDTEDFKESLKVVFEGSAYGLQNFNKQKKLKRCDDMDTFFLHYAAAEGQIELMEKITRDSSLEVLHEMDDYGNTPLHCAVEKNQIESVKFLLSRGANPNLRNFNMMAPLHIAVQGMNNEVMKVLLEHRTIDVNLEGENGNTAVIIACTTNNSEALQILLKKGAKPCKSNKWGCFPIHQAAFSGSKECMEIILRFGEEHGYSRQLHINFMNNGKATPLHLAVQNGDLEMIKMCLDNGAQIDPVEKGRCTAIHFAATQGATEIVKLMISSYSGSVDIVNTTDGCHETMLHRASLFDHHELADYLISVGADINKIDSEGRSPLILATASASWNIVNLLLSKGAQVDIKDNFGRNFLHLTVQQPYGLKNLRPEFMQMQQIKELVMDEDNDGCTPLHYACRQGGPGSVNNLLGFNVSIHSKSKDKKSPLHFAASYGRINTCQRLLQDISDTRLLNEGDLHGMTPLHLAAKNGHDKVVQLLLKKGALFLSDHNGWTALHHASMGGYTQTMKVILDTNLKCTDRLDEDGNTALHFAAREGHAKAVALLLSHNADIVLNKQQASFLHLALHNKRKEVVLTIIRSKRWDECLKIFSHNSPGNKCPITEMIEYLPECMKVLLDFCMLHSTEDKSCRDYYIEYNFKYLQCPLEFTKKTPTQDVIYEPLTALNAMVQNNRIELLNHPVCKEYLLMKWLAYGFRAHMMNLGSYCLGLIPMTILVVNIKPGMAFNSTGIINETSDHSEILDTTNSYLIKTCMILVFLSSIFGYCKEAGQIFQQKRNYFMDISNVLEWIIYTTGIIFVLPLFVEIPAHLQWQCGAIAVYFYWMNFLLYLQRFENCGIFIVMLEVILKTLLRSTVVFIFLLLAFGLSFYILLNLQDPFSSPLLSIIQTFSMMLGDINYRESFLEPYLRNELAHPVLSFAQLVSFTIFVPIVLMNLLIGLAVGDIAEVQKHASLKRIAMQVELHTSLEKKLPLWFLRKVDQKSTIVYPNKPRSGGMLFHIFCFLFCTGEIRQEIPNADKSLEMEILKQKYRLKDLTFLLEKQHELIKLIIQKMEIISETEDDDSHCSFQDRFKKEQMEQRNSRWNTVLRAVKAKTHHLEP", "experiment": "In vitro Ca2+ flux counter-screen in human TRPA1 overexpressing cells", "type": "cell-based", "details": "counter-screen; read-out: TRPA1 EC50"}, "TRPV1": {"biological_target": "T2, TRPV1 (Mus musculus, UniProt Q704Y3)", "T2 construct": "DRG was isolated from male and female mice expressing GCaMP6f in neurons; endogenous in cells; host or cells: dissociated primary DRG neurons from GCaMP6f-expressing mice", "T2 sequence (Q704Y3 whole entry)": "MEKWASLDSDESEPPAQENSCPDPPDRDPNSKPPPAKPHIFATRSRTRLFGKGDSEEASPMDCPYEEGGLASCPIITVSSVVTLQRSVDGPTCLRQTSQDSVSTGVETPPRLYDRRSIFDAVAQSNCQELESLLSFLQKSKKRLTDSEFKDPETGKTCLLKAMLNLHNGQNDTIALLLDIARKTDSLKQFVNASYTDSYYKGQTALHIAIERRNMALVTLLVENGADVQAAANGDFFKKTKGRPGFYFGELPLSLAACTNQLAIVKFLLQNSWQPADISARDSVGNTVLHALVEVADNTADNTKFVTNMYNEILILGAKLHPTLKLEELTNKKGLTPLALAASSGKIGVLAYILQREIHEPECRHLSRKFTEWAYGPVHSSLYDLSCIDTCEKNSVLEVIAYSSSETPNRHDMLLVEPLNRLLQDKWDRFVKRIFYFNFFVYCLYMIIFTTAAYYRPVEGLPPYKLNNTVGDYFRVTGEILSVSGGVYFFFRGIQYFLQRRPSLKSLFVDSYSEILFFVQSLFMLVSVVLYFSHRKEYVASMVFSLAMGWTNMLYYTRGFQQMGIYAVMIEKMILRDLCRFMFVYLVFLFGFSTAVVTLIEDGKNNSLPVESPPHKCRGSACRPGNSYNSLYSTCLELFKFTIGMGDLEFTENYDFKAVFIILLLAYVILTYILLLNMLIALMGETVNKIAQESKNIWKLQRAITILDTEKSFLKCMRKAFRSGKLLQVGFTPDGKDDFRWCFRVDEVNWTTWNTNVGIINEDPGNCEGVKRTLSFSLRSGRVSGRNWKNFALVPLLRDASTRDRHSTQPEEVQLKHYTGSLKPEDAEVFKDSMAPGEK", "experiment": "Ca2+ imaging of primary mouse dorsal root ganglion (DRG) neurons, TRPV1 desensitization", "type": "cell-based", "details": "then capsaicin 0.5 μM"}, "[1]": {"experiment": "Operant Pain Tolerance Assay", "type": "in vivo", "details": "intraplantar", "protocol": "Model 3—The ability of YB-16 to increase pain tolerance was tested using a newly published Operant Pain Tolerance Assay (eNeuro 2020, 7, ENEURO.0210-19.2020). In the assay, mice were trained to seek a sucrose reward that was on a hot 42° C. plate (versus no reward on a neutral 30° C. plate). It was noticed that intraplantar YB-16 treated mice with paw inflammatory injury [induced by Complete Freund's adjuvant (CFA) 24 hrs prior to treatment] trended to spend 145% more time on the hot side of the assay but not necessarily additional time near the sucrose bottle compared to vehicle treated mice (FIG. 10B)."}, "OVCAR-8": {"test_system": "OVCAR-8", "experiment": "Human cancer cell growth inhibition assay (ATP assay), OVCAR-8", "type": "cell-based", "details": "Homo sapiens, OVCAR-8, 96 h; 4 days; Means±SEM from three independent experiments; read-out: OVCAR-8, IC50"}, "NCI-H460 cell invasion": {"test_system": "NCI-H460 cell invasion", "experiment": "Cancer cell invasion assay, NCI-H460", "type": "cell-based, human", "details": "24 h", "protocol": "(§1) A cancer cell invasion assay was developed based on literature protocols (Methods 2005, 37, 208; EMBO J 2002, 21, 6289; Cellular Signalling 2012, 24, 1276.). Membrane matrix gel (Cat #A1413201, ThermoFisher) was diluted in ice-cold, serum-free RPMI 1640 Medium (Cat #31800022, ThermoFisher) at a concentration of 0.5-0.6 mg/mL. Then it was added to the upper compartment (100 μL per cup) of millicell inserts (Cat #PI8P01250, ThermoFisher) placed in a 24-well plate (Part no. 229123, Celltreat). The plate was incubated at 37° C. for 2 h to allow the liquid gel to solidify. RPMI 1640 Medium supplemented with 10% FBS (300 μL) was added to the well of the plate (lower compartment) as attractant, then DMSO or compounds were added. Human cancer cells (1×10^5 cells in 200 μL of RPMI 1640 Medium) were added to the upper compartment of the insert, then DMSO or compounds were added. After the plate was incubated at 37° C. for 24 h, the cells were fixed on the lower side of the insert membrane with 4% formaldehyde and stained with 1% crystal violet (Part no. IS12146, Innovating Science). The invaded cells on the lower side of the filter were counted under an inverted microscope equipped with either a 4× or a 10× objective (FIG. 11). The cell numbers from 5 random views were averaged and plotted as percentage against the DMSO control (FIG. 12A)."}, "OVCAR-8 cell invasion": {"test_system": "OVCAR-8 cell invasion", "experiment": "Cancer cell invasion assay, OVCAR-8", "type": "cell-based, human", "details": "24 h", "protocol": "as §1"}, "[2]": {"test_system": "Src protein activation in MDA-MB-231 cells", "experiment": "Cancer cell immunocytochemistry assay, Phospho-Src (Y416), MDA-MB-231", "type": "cell-based, human", "details": "YB-1 15 μM, capsaicin 50 μM, 1-6 h", "protocol": "(§2) Human cancer cells (15,000 cells/well) in 96 well half area microplate (Cat #3882, Corning) were incubated overnight at 37° C., then compounds or DMSO control were added to the cell culture and incubated at 37° C. for 1-6 h. The cells were sequentially fixed with 4% formalin, permeabilized with 0.5% Triton X-100, blocked with 5% BSA in PBS, incubated with Human Phospho-Src (Y416) Antibody (Cat #MAB2685, R&D Systems) at rt for 2 h, incubated with the secondary antibody Goat Ant-Rabbit IgG H&L (Alexa Fluor 488) (Cat #ab150077, abeam) for 45 min, and incubated with DAPI (Cat #D9542, Sigma-Aldrich) for 5 min. Finally, the cells were washed and covered with PBS. The cell images were visualized on an inverted fluorescence microscope (Leica DMIL Fluorescent Inverted Microscope with Digital Camera, Leica Microsystems). Pictures were taken [FIGS. 14A-C. Green: Human Phospho-Src (Y416), the activated form of the Src protein; Blue: DAPI (stain nucleus of cell)]. The fluorescence intensity values from 5 random cells were averaged, subtracted by the background value (area between cells) and the blank value [the blank control without the Human Phospho-Src (Y416) Antibody], then plotted as percentage against the DMSO control to indicate the effects of compound treatment on the cellular Src kinase phosphorylation levels in the cancer cells (FIGS. 15A-D)."}, "[3]": {"test_system": "Src protein activation in NCI-H460 cells", "experiment": "Cancer cell immunocytochemistry assay, Phospho-Src (Y416), NCI-H460", "type": "cell-based, human", "details": "YB-1 15 μM, capsaicin 50 μM, 1-6 h", "protocol": "as §2"}, "[4]": {"details": "background; cited from earlier work"}, "[5]": {"test_system": "MDA-MB-231 breast cancer tumors", "details": "literature; cited from earlier work"}, "[6]": {"details": "first treatment capsaicin 0.5 μM, YB-11 0.5 μM or YB-16 1.0 μM, paired t-test"}}, "note": "“Also recorded” adds a separate entry of the source.", "data": [{"compound": "COc1cc(CNC(=O)CCCC/C=C/C(C)C)ccc1O", "note": "[Capsaicin, trans-8-methyl-N-vanillyl-6-nonenamide, reference compound]", "values": [{"measurement": "EC50", "setting": "human TRPA1", "value": "> 10", "unit": "µM"}, {"measurement": "TRPV1-sensitive neurons showing desensitization", "setting": "TRPV1; first treatment 0.5 μM", "value": 96, "unit": "%"}, {"measurement": "area under the curve of the Ca2+ signal of the second (capsaicin) application", "setting": "TRPV1; [6]", "value": "statistically significant reduction; also recorded: significantly reduced"}, {"measurement": "max Ca2+ signal of the second (capsaicin) application", "setting": "TRPV1; [6]", "value": "statistically significant reduction; also recorded: significantly reduced"}, {"measurement": "sedation in operant pain tolerance assay", "setting": "[1]", "value": "inflammatory injury with sedation"}, {"measurement": "sensitivity to hot plate after inflammatory injury", "setting": "[1]; paw inflammatory injury (CFA)", "value": "Weak trend for reduced sensitivity to"}, {"measurement": "IC50", "setting": "OVCAR-8", "value": "234 ± 31", "unit": "µM"}, {"measurement": "inhibition of NCI-H460 cell invasion", "setting": "NCI-H460 cell invasion", "value": "dose-dependently inhibited"}, {"measurement": "inhibition of OVCAR-8 cell invasion", "setting": "OVCAR-8 cell invasion", "value": "dose-dependently inhibited"}, {"measurement": "cellular Src kinase phosphorylation levels", "setting": "[2]", "value": "time-dependently reduced the cellular Src kinase phosphorylation levels"}, {"measurement": "cellular Src kinase phosphorylation levels", "setting": "[3]", "value": "time-dependently reduced the cellular Src kinase phosphorylation levels"}, {"measurement": "solubility in water", "setting": "[4]", "value": 13, "unit": "µg/mL"}, {"measurement": "decrease of tumor size", "setting": "[5]", "value": 50, "unit": "%"}]}]}
